The record followed here is patent US9790211B2, “5-amino-quinoline-8-carboxamide derivatives as 5-HT4 receptor agonists” (SUVEN LIFE SCIENCES LIMITED, priority 2013, dated 2017).

Like-named read-outs stand apart in the source and are kept apart here.

The target of assay [1] is T1, recombinant human 5-HT4 receptor (Homo sapiens, UniProt Q13639).
T1 construct: expressed in transfected cells
In words: Determination of EC50 values for 5-HT4 receptor (CHO cells, pCRE-Luc reporter). The note with it: for Emax: CHO; for EC50: 4 hours incubation. It is filed as cell-based. How it is done: Determination of EC50 Values for 5-HT4 Receptor
A stable CHO cell line expressing recombinant human 5-HT4 receptor and pCRE-Luc reporter system was used for cell-based assay. The assay offers a non-radioactive based approach to determine binding of a compound to GPCRs. In this specific assay, the level of intracellular cyclic AMP, which is modulated by activation, or inhibition of the receptor is measured. The recombinant cells harbor luciferase reporter gene under the control of cAMP response element.
The above cells were grown in 96 well clear bottom white plates in Hams F12 medium containing 10% fetal bovine serum (FBS). Prior to the addition of compounds or standard agonist, cells were serum starved overnight. Increasing concentrations of test compounds were added in OptiMEM medium to the cells. The incubation was continued at 37° C. in CO2 incubator for 4 hours. Medium was removed and cells were washed with phosphate buffered saline. The cells were lysed and luciferase activity was measured in a Luminometer. Luminescence units were plotted against the compound concentrations using Graphpad software.

A further assay deals with Male Wistar rats. Briefly: Object recognition task model. The note with it: dose mg/kg: Ex 1 0.1, Ex 2 0.03, Ex 4 0.03, Ex 13 1, Ex 23 0.01, Ex 37 10, Ex 43 0.3. It is filed as in vivo. How it is done:
The cognition enhancing properties of compounds of this invention were estimated by using this model.
Male Wistar rats (230-280 grams) were used as experimental animals. Four animals were housed in each cage. Animals were kept on 20% food deprivation before one day and given water ad libitum throughout the experiment and maintained on a 12 hours light/dark cycle. Also the rats were habituated to individual arenas for 1 hour in the absence of any objects.
One group of 12 rats received vehicle (1 mL/Kg) orally and another set of animals received compound of the formula (I) either orally or i.p., before one hour of the familiar (T1) and choice trial (T2).
The experiment was carried out in a 50×50×50 cm open field made up of acrylic. In the familiarization phase, (T1), the rats were placed individually in the open field for 3 minutes, in which two identical objects (plastic bottles, 12.5 cm height×5.5 cm diameter) covered in yellow masking tape alone (a1 and a2) were positioned in two adjacent corners, 10 cms from the walls. After 24 hours of the (T1) trial for long-term memory test, the same rats were placed in the same arena as they were placed in T1 trial. Choice phase (T2) rats were allowed to explore the open field for 3 minutes in presence of one familiar object (a3) and one novel object (b) (Amber color glass bottle, 12 cm high and 5 cm in diameter). Familiar objects presented similar textures, colors and sizes. During the T1 and T2 trial, explorations of each object (defined as sniffing, licking, chewing or having moving vibrissae whilst directing the nose towards the object at a distance of less than 1 cm) were recorded separately by stopwatch. Sitting on an object was not regarded as exploratory activity, however, it was rarely observed.
T1 is the total time spent exploring the familiar objects (a1+a2).
T2 is the total time spent exploring the familiar object and novel object (a3+b).
The object recognition test was performed as described by Behaviour Brain Research, (1988), 31, 47-59.

For a further assay, the system named is Aβ1-40. Briefly: Effect on CSF Aβ1-40 level (ELISA). It is filed as in vivo, Male Sprague Dawley Rat. The note with it: 50.0 mg/kg p.o., positive control. How it is done: The control group of male rats received a vehicle (reagent grade water) per orally by gavage at a dose volume of 10 mL/kg. The treated groups (6 rat per group) received a single dose of test compound (different doses) or DAPT (50.0 mg/kg). Two hour post dose of vehicle or test compounds, rats were anesthetized with isoflurane and CSF was collected from Cisterna magna using 0.5 mL syringes by utilizing stereotaxic frame. The CSF samples were frozen in liquid nitrogen and stored at −80° C. until ELISA was performed.
• 1. CSF samples were thawed to RT and diluted with Tris Buffer Saline containing protease inhibitors at 1:10 ratio 115:150 μL (15 μL CSI+135 μL TBS. • 2. To this diluted CSF samples 0.15 mL of EIA buffer (1:1 ratio) was added. These diluted samples were subjected for Aβ1-40 level measurement by ELISA. Measurement of Aβ1-40 by ELISA Kit:
To investigate the role of an acute treatment of test compound on Aβ1-40 levels, expression of this protein in CSF was measured in treated and untreated rat by ELISA assay. The entire procedure was followed as per ELISA kit manual (Mouse/Rat Amyloid-Aβ1-40 ELISA, Cat No: 27721, IBL International, Hamburg, Germany).
Statistical analysis was performed using the Graph Pad Prism (Version 4). Data are Mean±SD of Aβ1-40 levels expressed as percentage of control values (rat which received regent grade water). Values were compared between the different groups by using unpaired t test. The significance level was set at *p<0.05; **p<0.01; ***p<0.001.

Another assay deals with Aβ1-42. Briefly: Effect on CSF Aβ1-42 level (ELISA). It is filed as in vivo, Male Sprague Dawley Rat. Conditions: 50.0 mg/kg p.o., positive control. How it is done:
The control group of male rats received a vehicle (reagent grade water) per orally by gavage at a dose volume of 10 mL/kg. The treated groups (6 rat per group) received a single dose of test compound (different doses) or DAPT (50.0 mg/kg). Two hour post dose of vehicle or test compounds, rats were anesthetized with isoflurane and CSF was collected by puncturing Cisterna magna using 0.5 mL syringes by utilizing stereotaxic frame. CSF samples were frozen in liquid nitrogen and stored at −80° C. until ELISA was performed.
• 1. CSF samples were thawed to RT and diluted with Tris Buffer Saline containing protease inhibitors at 1:10 ratio [15:150 μL (15 μL CSF+ 135 μL TBS], • 2. To this diluted CSF samples 0.15 mL of EIA buffer (1:1 ratio) was added. These diluted samples were subjected for Aβ1-42 level measurement by ELISA. Measurement of Aβ1-42 by ELISA Kit:
To investigate the role of an acute treatment of test compound on Aβ1-42 levels, expression of this protein was measured in CSF of treated and untreated rat by ELISA assay. The entire procedure was followed as described in ELISA kit manual (Mouse/Rat […], Cat No: 27720, IBL International, Hamburg, Germany).
Statistical analyses were performed using the Graph Pad Prism (Version 4). Data are Mean±SD of Aβ1-42 levels expressed as percentage of control values (rat which received regent grade water). Values were compared between the different groups by unpaired t test. The significance level was set at *p<0.05; **p<0.01; ***p<0.001.

Setting [2] is: CHO cells, human 5-HT4 receptor, luciferase reporter.
Where [3] appears, read: CHO cells, human 5-HT4 receptor, luciferase reporter, read-out: Emax.

T1 sequence (Q13639 whole entry): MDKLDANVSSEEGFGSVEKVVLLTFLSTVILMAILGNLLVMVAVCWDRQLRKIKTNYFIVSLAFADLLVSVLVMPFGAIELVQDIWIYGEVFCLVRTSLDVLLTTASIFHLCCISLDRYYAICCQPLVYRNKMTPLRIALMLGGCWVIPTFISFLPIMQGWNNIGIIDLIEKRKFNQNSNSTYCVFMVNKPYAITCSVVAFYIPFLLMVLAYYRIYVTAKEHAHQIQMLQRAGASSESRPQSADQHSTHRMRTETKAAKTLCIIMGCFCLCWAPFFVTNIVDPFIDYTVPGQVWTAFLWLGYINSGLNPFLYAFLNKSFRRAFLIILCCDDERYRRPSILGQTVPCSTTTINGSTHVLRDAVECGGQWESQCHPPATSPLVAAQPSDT

In the case of `Nc1c(Cl)cc(C(=O)NCC2CCN(CC3CCOC3)CC2)c2ncccc12.O=C(O)C(O)C(O)C(=O)O` (racemic) [Example 4, (R,S) 5-Amino-6-chloro-N-{[1-(tetrahydro-3-furanylmethyl)-4-piperidinyl]methyl} quinoline-8-carboxamide L(+)-tartarate], in assay [1], the maximal response (Emax) amounted to 56%. For the same compound, the half-maximal effective concentration (EC50) in assay [1] (setting [2]) was 0.05 nM. For the same compound, in the assay on Male Wistar rats (choice trial T2, p.o.), the “Exploration time mean ± S.E.M, Familiar object” value is 6.96 ± 1.02 s and the “Exploration time mean ± S.E.M, Novel object” value was 12.37 ± 1.22 s. In the assay on Male Wistar rats (p.o.), the Inference result is on record as “Active”.
In the case of `C[C@H](NC(=O)Cc1cc(F)cc(F)c1)C(=O)N[C@H](C(=O)OC(C)(C)C)c1ccccc1` [DAPT, reference compound], the “level of Aβ1-40 in rat CSF (in words)” value with Aβ1-40 is on record as “significantly decreased”. For the same compound, the “levels of Aβ1-42 in rat CSF (in words)” value in the assay on Aβ1-42 was “significantly decreased”.
`CC(C)(O)CN1CCC(CNC(=O)c2cc(Br)c(N)c3cccnc23)CC1` [Example 44, 5-Amino-6-bromo-N-{[1-(2-hydroxy-2-methylpropyl)-4-piperidinyl]methyl} quinoline-8-carboxamide L(+)-tartarate]: the maximal response (Emax) in assay [1] amounted to 52%. For the same compound, the EC50 in assay [1] (setting [2]) came out at 0.3 nM.
The like results for `CC(C)(O)CN1CCC(F)(CNC(=O)c2cc(Br)c(N)c3cccnc23)CC1` [Example 45, 5-Amino-6-bromo-N-{[4-fluoro-1-(2-hydroxy-2-methylpropyl)-4-piperidinyl]methyl} quinoline-8-carboxamide L(+)-tartarate] were, in that order, 89% and 11.8 nM.
For `CC(C)(F)CN1CCC(CNC(=O)c2cc(Cl)c(N)c3cccnc23)CC1` [Example 46, 5-Amino-6-chloro-N-{[1-(2-fluoro-2-methylpropyl)-4-piperidinyl]methyl}quinoline-8-carboxamide], the EC50 in assay [1] (setting [2]) is 0.1 nM. The Emax in assay [1] (setting [3]) worked out at 58%.
As for `CC(C)(F)CN1CCC(F)(CNC(=O)c2cc(Cl)c(N)c3cccnc23)CC1` [Example 48, 5-Amino-6-chloro-N-{[4-fluoro-1-(2-fluoro-2-methylpropyl)-4-piperidinyl]methyl} quinoline-8-carboxamide], the EC50 in assay [1] (setting [2]) was found to be 8.9 nM. In assay [1] (setting [3]), the Emax stood at 84%.
For `Nc1c(Cl)cc(C(=O)NCC2C3CN(CCO)CC23)c2ncccc12` (stereo not drawn) [Example 50, 5-Amino-6-chloro-N-{[3-(2-hydroxyethyl)-3-azabicyclo[3.1.0]hex-6-yl]methyl} quinoline-8-carboxamide] the same measures were 1.7 nM and 72%.
Take `Nc1c(Cl)cc(C(=O)NCC2C3CN(CCCO)CC23)c2ncccc12` (stereo not drawn) [Example 51, 5-Amino-6-chloro-N-{[3-(3-hydroxypropyl)-3-azabicyclo[3.1.0]hex-6-yl]methyl} quinoline-8-carboxamide]: the EC50 in assay [1] (setting [2]) was determined as 1.4 nM. In assay [1] (setting [3]), the Emax was 85%.
For `Nc1c(Cl)cc(C(=O)NCC2CCN(CCF)CC2)c2ncccc12` [Example 52, 5-Amino-6-chloro-N-{[1-(2-fluoroethyl)-4-piperidinyl]methyl}quinoline-8-carboxamide], in assay [1] (setting [2]), the EC50 was determined as 0.41 nM. Besides, the Emax in assay [1] (setting [3]) was determined as 63%.
The like results for `Nc1c(Cl)cc(C(=O)NCC2C3CN(CCF)CC23)c2ncccc12` (stereo not drawn) [Example 53] were, in that order, 4.5 nM and 65%.
On to `COCCCN1CC2C(CNC(=O)c3cc(Cl)c(N)c4cccnc34)C2C1` (stereo not drawn) [Example 54, 5-Amino-6-chloro-N-{[3-(3-methoxypropyl)-3-azabicyclo[3.1.0]hex-6-yl]methyl}quinoline-8-carboxamide L(+)-tartarate], for which the Emax in assay [1] came to 70%. In assay [1] (setting [2]), the concentration giving a half-maximal response (EC50) is 0.7 nM.
In the case of `COCC(C)(C)CN1CCC(CNC(=O)c2cc(Cl)c(N)c3cccnc23)CC1` [Example 55, 5-Amino-6-chloro-N-{[1-(3-methoxy-2,2-dimethylpropyl)-4-piperidinyl]methyl}quinoline-8-carboxamide L(+)-tartarate], in assay [1], the Emax amounted to 72%. For the same compound, the concentration giving a half-maximal response (EC50) in assay [1] (setting [2]) stood at 0.09 nM.
